Assays:
human normal leukocytes = experiment: Apoptosis of human normal leukocytes; type: cell-based; conditions: same concentration as that used in inducing apoptosis of leukemia cells
normal cells [1] = experiment: Proliferation of normal cells; type: cell-based
[2] = system: adult T cell leukemia/lymphoma (ATL) cells; experiment: Proliferation of ATL cells; type: cell-based
NF-κB [3] = conditions: J. Biol. Chem. 277, 24625-24630, 2002; cited from earlier work
breast cancer = conditions: Annual Meeting of the Japanese Cancer Association, 2002; cited from earlier work
[4] = background statement; cited from earlier work
[5] = system: human breast cancer cells; experiment: Proliferation of human breast cancer cells in vitro and in vivo; type: cell-based; conditions: in a manner not depending on apoptosis
normal cells [6] = experiment: Apoptosis of normal cells; type: cell-based
[7] = Combination with oncotherapy that activates NF-κB; conditions: used in combination
[8] = system: Hodgkin's-lymphoma cells in which NF-κB is activated; experiment: Proliferation of Hodgkin's-lymphoma cells; type: cell-based
[9] = Type II collagen-induced rheumatoid arthritis model mice; type: in vivo; conditions: administration to model mice of type II collagen-induced rheumatoid arthritis
[10] = Bioorg. Med. Chem. Lett. 10, 865-869, 2000; cited from earlier work
NF-κB [11] = experiment: NF-κB activation in ATL cells; type: cell-based
[12] = system: leukemia cells in which NF-κB is activated; experiment: Apoptosis of leukemia cells; type: cell-based
prostatic cancer = conditions: Cancer Res. 2003; 63(1):107-10; cited from earlier work
[13] = Model mice with induced cachexic symptoms; type: in vivo; conditions: administered to model mice with induced cachexic symptoms
[14] = system: adult T cell leukemia/lymphoma (ATL) cells; experiment: Apoptosis of ATL cells; type: cell-based
[15] = system: myelocytic leukemia cells in which NF-κB is not activated; experiment: Proliferation of myelocytic leukemia cells; type: cell-based
NF-κB [16] = experiment: Inhibition of NF-κB activity; type: cell-based
[17] = system: hypertrophic fat cells (from precursor fat cell line 3T3-L1); experiment: Apoptosis induction (TUNEL) in hypertrophic fat cells; type: cell-based
Experimental: It is considered that diseases involving insulin resistance result from TNF-α secreted from hypertrophic fat cells, as mentioned above. Thus, to examine whether (−)-DHM2EQ can induce apoptosis of hypertrophic fat cells, the influence of (−)-DHM2EQ on the hypertrophic fat cells obtained by inducing differentiation of precursor fat cells in long-term culture was investigated. The precursor fat cell line 3T3-L1 (7.5×10^4 cells; 1 ml of DMEM+10% FBS) was plated on coverslips in 12-well plates. A few days after the cells reached confluency, the cell medium was changed to a medium containing 500 μM of 3-isobutyl-1-methylxanthine (IBMX), 1 μM of dexamethasone (Dex), and a medium containing 1 μg/ml of insulin. After culture for 3 days, this medium was changed to a media containing 1 μg/ml insulin, which was cultured for another 3 days, followed by replacement with a normal medium (DMEM containing 10% FBS). Thereafter, medium change was performed every three days continuously till day 50.
On day 50 after differentiation induction, medium change was performed. […] After another 24 h, the medium was removed and hypertrophy fat cells were washed 3 times with 500 μl of PBS (8 g/l NaCl, 0.45 g/l NaH2PO4.2H2O, 1.28 g/l Na2HPO4) for fluorescent antibodies and fixed for 15 min at 4° C. in 500 μl of 4% paraformaldehyde. Subsequently, cells were washed three times with 500 μl of PBS for fluorescent antibodies and treated for 15 min with 0.2% BSA and 0.5% Tween-20 in PBS for fluorescent antibodies.
Subsequently, the coverslips were washed three times with 500 μl of distilled water and then mounted on the paraffin sheet in 150-mm^2 shielded Petri dishes, cells facing upward. TUNEL solution (TdT buffer II/FITC-dUTP/TdT=45 μl/2.5 μl/2.5 μl) was dropped in 45-μl drops onto the coverslips, followed by incubation for 1 h at 37° C. Finally, the coverslips were returned to shielded 12-well plates and washed three times with 1 ml of PBS for fluorescent antibodies. Then the coverslips were removed, mounted on a slide in 50% glycerol, and observed under a fluorescence microscope.

[18] = Body weight under high fat diet in obese type 2 diabetes model; type: in vivo; conditions: supplemented to high fat diet, 4 weeks, KKA^y female mice; FIG. 8
Experimental: Four-week-old KKA^y female mice were divided into two groups: the (−)-DHM2EQ group (n=5) and the control group (n 4). A high fat diet (CRF-1; Oriental Yeast Co.) as a basal chow diet was fed ad libitum for 4 weeks to the non-supplemented group (∘: without (−)-DHM2EQ) and the (−)-DHM2EQ-administered group (●: with (−)-DHM2EQ). Body weights of animals were measured weekly. The (−)-DHM2EQ given to mice was ground to fine powder in a mortar, suspended or dissolved in a 5% CMC solution, and supplemented to the high fat diet.

[19] = system: multiple myeloma cells line KMS-12-PE; experiment: Antitumor effect in myeloma model mice; type: in vivo, CB17/lcr-SCID mice; conditions: 8 mg/kg BW intraperitoneally every day for 14 days; FIG. 5
Experimental: Next, the antitumor effect of (−)-DHM2EQ on multiple myeloma was investigated. The multiple myeloma cells line KMS-12-PE (Ohtsuki T. et al., Br. J. Hematol. 73, 199-204, 1989) (4×10^7 cells) was dissolved in 0.2 ml of PBS and injected subcutaneously into the left back of CB17/lcr-SCID mice to form tumors. Pieces of these tumors (5 mm^3) were implanted in 10 mice. […] Subsequently, a solution of (−)-DHM2EQ (RPMI1640 medium) was administered intraperitoneally to 5 mice at 8 mg/kg BW every day for 14 days ((−)-DHM2EQ). Another five mice in the control group were given an equal amount of solvent (Control). The diameters of tumors were measured twice a week (Tumor volume=(minor axis)^2×(major axis)×0.52).

[20] = system: Undifferentiated human thyroid cancer cell FRO; experiment: Antitumor effect in thyroid cancer model mice; type: in vivo, BALB/cnu/nu male mice; conditions: 10 mg/kg BW intraperitoneally every day for 10 days; FIG. 6
Experimental: The antitumor effect of (−)-DHM2EQ on human thyroid cancer was investigated. Undifferentiated human thyroid cancer cell suspension FRO (5×10^6 cells; 1200 μl of RPMI-1640) was injected subcutaneously into the flank of 8-week-old BALB/cnu/nu male mice (Charles River, Japan). Subsequently, tumor sizes were measured with calipers every other day, and tumor volume was calculated by formula (a; minor axis of tumor)^2×(b: perpendicular diameter to a)×0.4).

C2C12 myoblast cell line = experiment: Relief of TNF-α inhibition of differentiation from myoblasts to muscle cells; type: cell-based, mouse; conditions: 6 days
Experimental: Thus, the inventors investigated whether addition of (−)-DHM2EQ can relieve the inhibitory responses to muscle differentiation by TNF-α, using a differentiation induction system of the C2C12 myoblast cell line. Using DMEM (culture medium) containing 10% FBS a mouse skeletal myogenic cell line, C2C12 (purchased from the RIKEN cell bank) was prepared at 7.5×10^4 cells/ml. Cells were seeded in plastic 12-well plates on coverslips (1 ml/well; Matsunami Glass Ind., Ltd., Osaka, Japan). Subsequently, when cells had grown to confluence, the medium was changed to DMEM (differentiation medium) containing 0.5% heat-inactivated horse serum. Cells to be subjected to the effect of TNF-α (1 ng/ml) and/or (−)-DHMEQ (3 μg/(ml)) were supplemented with each agent at this point. After 6 days, on confirmation of the formation of multinucleated myotubes, a marker of muscle cell differentiation, the medium was removed. The control was prepared by culturing cells in a culture medium at a density such that confluency was reached exactly on day 6.
These cells were washed twice with PBS^− (Ca^2+, Mg^2+-free PBS; 8.0 g/l NaCl, 0.2 g/l KCl, 2.3 g/l NaHPO4.12H2O, 0.2 g/l KH2PO4). […]
Samples thus prepared were mounted on a slide and photographed at 400× magnification with a fluorescence microscope (Nikon UFX-DX; set with a 40× phase contrast objective, Ph2). […]

## O=C(NC1=CC(=O)C2OC2C1O)c1ccccc1O (racemic) [(±)-DHM2EQ, 5,6-epoxy-4-hydroxy-3-salicyloylamino-2-cyclohexenone]
Human normal leukocytes
  apoptosis of human normal leukocytes: does not in the least induce apoptosis
Normal cells [1]
  proliferation of normal cells: does not inhibit proliferation
[2]
  proliferation of ATL cells: specifically capable of inhibiting proliferation
NF-κB [3]
  NF-κB inhibition on a cellular level: inhibits NF-κB strongly
Breast cancer
  growth of breast cancer on an organism level: strongly suppresses the growth
[4]
  toxicity: low toxicity
[5]
  proliferation of human breast cancer cells: suppresses proliferation
Normal cells [6]
  apoptosis of normal cells: does not induce apoptosis
[7]
  effect of oncotherapy that activates NF-κB (chemotherapy, radiotherapy): enhances the effect
[8]
  proliferation of Hodgkin's-lymphoma cells: inhibits proliferation
[9]
  arthritic symptoms: efficacy of (±)-DHM2EQ in suppression of arthritic symptoms
[10]
  symptoms in a model mouse of rheumatism: suppresses symptoms
NF-κB [11]
  NF-κB activation in ATL cells: inhibits NF-κB activation
[12]
  apoptosis of leukemia cells: induces apoptosis
Prostatic cancer
  growth of prostatic cancer on an organism level: strongly suppresses the growth
[13]
  cachexic symptoms: efficacy of (±)-DHM2EQ in prevention/improvement of cachexic symptoms
[14]
  apoptosis of ATL cells: capable of inducing apoptosis
[15]
  proliferation of myelocytic leukemia cells: does not inhibit proliferation

## O=C(NC1=CC(=O)[C@H]2O[C@H]2[C@H]1O)c1ccccc1O [(−)-DHM2EQ]
NF-κB [16]
  inhibitory effect on the NF-kappa B activity relative to (±)-DHM2EQ: several to ten or more times stronger
[17]; 10 μg/ml (−)-DHM2EQ alone, without TNF-α
  apoptosis of hypertrophic fat cells: did not induce apoptosis
[17]; pretreated with 10 mg/ml (−)-DHM2EQ, then stimulation with 10 ng/ml TNF-α, TUNEL, FIG. 7
  apoptosis of hypertrophic fat cells: induces apoptosis
[18]
  body weight under high fat diet load: suppression of body weight
[19]
  tumor growth (tumor volume) compared with the control: significantly suppresses tumor growth
[20]
  tumor growth (tumor volume) compared with the control: significantly inhibits tumor growth
C2C12 myoblast cell line; 1 to 3 μg/ml (−)-DHM2EQ with 1 ng/ml TNF-α, FIG. 9
  inhibition by TNF-α of differentiation induction from myoblasts to muscle cells: relieves the inhibition of the differentiation induction

## TNF-α [reference compound]
[17]; 10 ng/ml TNF-α alone
  apoptosis of hypertrophic fat cells: did not induce apoptosis
C2C12 myoblast cell line; 1 ng/ml TNF-α
  differentiation induction from myoblasts to muscle cells: suppressed differentiation induction
